In patent publication US20240238212A1, “LIPID COMPOUNDS AND LIPID NANOPARTICLE COMPOSITIONS” (SUZHOU ABOGEN BIOSCIENCES CO., LTD., priority 2022, published 2024):

Columns and labels:
[1] = test system: human erythropoietin (hEPO) mRNA expression; experiment: Animal Study 1: hEPO mRNA LNPs i.v. in mice, serum EPO by ELISA; format: in vivo; conditions: female ICR mice, 0.5 mg/kg tail vein injection, blood e.g. 6 hours post administration; relative to MC3 LNP
Protocol: Lipid nanoparticles comprising compounds in the following table encapsulating human erythropoietin (hEPO) mRNA were systemically administered to 6-8 week old female ICR mice (Xipuer-Bikai, Shanghai) at 0.5 mg/kg dose by tail vein injection and mice blood were sampled at specific time points (e.g., 6 hours) post administration. In addition to the aforementioned tested groups, lipid nanoparticles comprising dilinoleylmethyl-4-dimethylaminobutyrate (DLin-MC3-DMA, usually abbreviated to MC3) encapsulating hEPO mRNA were similarly administered at the same dose to age and gender comparative groups of mice as a positive control.
Mice were euthanized by CO2 overdoses after the last sampling time point. Serum were separated from total blood by centrifugation at 5000 g for 10 minutes at 4 T, snap-frozen and stored at −80 T for analysis. ELISA assay were carried out using a commercial kit (DEP00, R&D systems) according to manufacturer's instructions.
Characteristics of tested lipid nanoparticles, including EPO expression levels over MC3 measured from the tested group are listed in the table below.

[2] = Encapsulation efficiency of lipid nanoparticles (Quant-it Ribogreen RNA assay); format: physicochemical; conditions: LNP comprising the compound, hEPO mRNA
Protocol: (§1) Briefly, a cationic lipid provided herein, DSPC, cholesterol, and PEG-lipid were solubilized in ethanol at a molar ratio of 50:10:38.5:1.5, and mRNA were diluted in 10 to 50 mM citrate buffer, pH=4. The LNPs were prepared at a total lipid to mRNA weight ratio of approximately 10:1 to 30:1 by mixing the ethanolic lipid solution with the aqueous mRNA solution at a volume ratio of 1:3 using a microfluidic apparatus, total flow rate ranging from 9-30 mL/min. Ethanol were thereby removed and replaced by DPBS using dialysis. Finally, the lipid nanoparticles were filtered through a 0.2 μm sterile filter.
(§2) Lipid nanoparticle size were determined by dynamic light scattering using a Malvern Zetasizer Nano ZS (Malvern UK) using a 173° backscatter detection mode. The encapsulation efficiency of lipid nanoparticles were determined using a Quant-it Ribogreen RNA quantification assay kit (Thermo Fisher Scientific, UK) according to the manufacturer's instructions.

[3] = Apparent pKa of LNP formulations (TNS fluorescence assay); format: physicochemical; conditions: LNP formulation, TNS assay (Table 2)
Protocol: As reported in literature, the apparent pKa of LNP formulations correlates with the delivery efficiency of LNPs for nucleic acids in vivo. The apparent pKa of each formulation was determined using an assay based on fluorescence of 2-(p-toluidino)-6-napthalene sulfonic acid (TNS). LNP formulations comprising of cationic lipid/DSPC/cholesterol/DMG-PEG (50/10/38.5/1.5 mol %) in PBS were prepared as described above. TNS was prepared as a 300 μM stock solution in distilled water. LNP formulations were diluted to 0.1 mg/mL total lipid in 3 mL of buffered solutions containing 50 mM sodium citrate, 50 mM sodium phosphate, 50 mM sodium borate, and 30 mM sodium chloride where the pH ranged from 3 to 9. An aliquot of the TNS solution was added to give a final concentration of […] and following vortex mixing fluorescence intensity was measured at room temperature in a Molecular Devices Spectramax iD3 spectrometer using excitation and mission wavelengths of 325 nm and 435 nm. A sigmoidal best fit analysis was applied to the fluorescence data and the pKa value was measured as the pH giving rise to half-maximal fluorescent intensity.

[4] = Lipid nanoparticle size and polydispersity by dynamic light scattering; format: physicochemical; conditions: LNP comprising the compound, hEPO mRNA; for Size (nm): cationic lipid/DSPC/cholesterol/PEG-lipid 50:10:38.5:1.5
Protocol: as §1, §2

Structure (SMILES) | Encapsulation efficiency [2] [%] | Apparent pKa [3] | Polydispersity [4] | Size (nm) [4] [nm] | EPO expression over MC3 [1]
CCCCCCCC(=O)OCC(CCCCN(CCO)CCCCC(COC(=O)CCCCCCC)COC(=O)CCCCCCC)COC(=O)CCCCCCC [Compound 1] | – | – | – | – | A (≥2)
CCCCCCCC(=O)OCC(CCCCN(CCCCC(COC(=O)CCCCCCC)COC(=O)CCCCCCC)CCN(CCO)C1CCC1)COC(=O)CCCCCCC [Compound 2] | – | – | – | – | A (≥2)
CCCCCCCCC(CCCCCC)C(=O)OCC(CCCCN(CCO)CCCCC(COC(=O)CCCCCCC)COC(=O)CCCCCCC)COC(=O)C(CCCCCC)CCCCCCCC (stereo not shown) [Compound 12] | 87.61 | – | 0.053 | 56.95 | D (<0.1)
CCCCCCCC(=O)OCC(COC(=O)CCCCCCC)OCCCN(CCCOC(COC(=O)CCCCCCC)COC(=O)CCCCCCC)CCN(CCO)C1CCCCC1 [Compound 14] | 82.84 | 6.457 | 0.049 | 91.43 | A (≥2)
CCCCCCCCOC(CCCCCN(CCO)CCCCCC(OCCCCCCCC)OCCCCCCCC)OCCCCCCCC [Compound 15] | 94.67 | 6.219 | 0.096 | 77.33 | C (≥0.1 and <1)
CCCCCCCCOC(CCCCCN(CCCCCC(OCCCCCCCC)OCCCCCCCC)CCOCCO)OCCCCCCCC [Compound 17] | 96.64 | 6.189 | 0.056 | 79.67 | C (≥0.1 and <1)
CCCCCCCCOC(CCCCCN(CCCCO)CCCCCC(OCCCCCCCC)OCCCCCCCC)OCCCCCCCC [Compound 18] | 93.58 | 6.251 | 0.057 | 62.64 | B (≥1 and <2)
CCCCCCCCOC(CCCCCN(CCCCCO)CCCCCC(OCCCCCCCC)OCCCCCCCC)OCCCCCCCC [Compound 19] | 95.52 | 6.216 | 0.07 | 64.48 | B (≥1 and <2)
CCCCC/C=C\C/C=C\CCCCCCCC(=O)OCCCCCCN(CCO)CCCCC(COC(=O)CCCCCCC)COC(=O)CCCCCCC [Compound 22] | 89.98 | 6.748 | 0.051 | 79.16 | A (≥2)
CCCCCCCC/C=C\CCCCCCCC(=O)OCCCCCCN(CCO)CCCCC(COC(=O)CCCCCCC)COC(=O)CCCCCCC [Compound 24] | 90.29 | 6.745 | 0.07 | 70.66 | C (≥0.1 and <1)
CCCCCCCCC(CCCCCC)CNC(=O)CCCCCN(CCO)CCCCC(COC(=O)C(CCCCCC)CCCCCCCC)COC(=O)C(CCCCCC)CCCCCCCC (stereo not shown) [Compound 26] | 85.33 | 6.332 | 0.01 | 55.11 | C (≥0.1 and <1)

Now from value to molecule, other results behind:

Encapsulation efficiency [2] [%] | Apparent pKa [3] | Polydispersity [4] | Size (nm) [4] [nm] | Structure (SMILES) | EPO expression over MC3 [1]
88.90 | 6.726 | 0.101 | 72.97 | CCCCCCCC(=O)OCC(CCCCN(CCCCCO)CCCCC(COC(=O)CCCCCCC)COC(=O)CCCCCCC)COC(=O)CCCCCCC [Compound 3] | A (≥2)
– | 6.943 | – | – | CCCCCCCCCCCCOC(=O)CCCCCN(CCO)CCCCCC(=O)OCC(COC(=O)CCCCCCC)COC(=O)CCCCCCC [Compound 4] | C (≥0.1 and <1)
90.78 | 6.509 | 0.021 | 68.14 | CCCCCCCC(=O)OCC(CCCCN(CCCCC(COC(=O)CCCCCCC)COC(=O)CCCCCCC)C1CCC(O)CC1)COC(=O)CCCCCCC (stereo not shown) [Compound 16] | A (≥2)
91.22 | 6.889 | 0.078 | 72.72 | CCCCCCCCCCCCCCCC(=O)OCCCCCCN(CCO)CCCCC(COC(=O)CCCCCCC)COC(=O)CCCCCCC [Compound 20] | A (≥2)
93.42 | 6.962 | 0.017 | 73.11 | CCCCCCCCCCCCCCCCCC(=O)OCCCCCCN(CCO)CCCCC(COC(=O)CCCCCCC)COC(=O)CCCCCCC [Compound 21] | B (≥1 and <2)
89.04 | 6.601 | 0.084 | 69.97 | CCCCCCCC(=O)OCC(CCCCN(CCCCC(COC(=O)CCCCCCC)COC(=O)CCCCCCC)C1CC(O)C1)COC(=O)CCCCCCC (stereo not shown) [Compound 23] | A (≥2)
82.87 | 6.418 | 0.085 | 98.05 | CCCCCCCC(=O)OCC(COC(=O)CCCCCCC)OCCCN(CCCCCO)CCCOC(COC(=O)CCCCCCC)COC(=O)CCCCCCC [Compound 25] | B (≥1 and <2)
91.59 | 6.404 | 0.073 | 64.02 | CCCCCCCC(=O)OCC(CCCCN(CCCCC(COC(=O)CCCCCCC)COC(=O)CCCCCCC)CCCNc1c(N(C)C)c(=O)c1=O)COC(=O)CCCCCCC [Compound 27] | A (≥2)
89.90 | 6.593 | 0.077 | 68.48 | CCCCCCCC(=O)OCC(CCCCN(CCCCCNc1c(N(C)C)c(=O)c1=O)CCCCC(COC(=O)CCCCCCC)COC(=O)CCCCCCC)COC(=O)CCCCCCC [Compound 28] | C (≥0.1 and <1)
93.31 | – | 0.1163 | 66.72 | CCCCCCCCCCC(=O)OCCCCCCN(CCCCC(COC(=O)CCCCCCC)COC(=O)CCCCCCC)CCCNc1c(N(C)C)c(=O)c1=O [Compound 40] | –
95.98 | – | 0.08791 | 55.42 | CCCCCCCCCCCCCCCCCC(=O)OCCCCCCN(CCCCC(COC(=O)CCCCCCC)COC(=O)CCCCCCC)CCCNc1c(N(C)C)c(=O)c1=O [Compound 41] | –
86.17 | – | 0.126 | 74.63 | CCCCCCCC(=O)OCC(CCCCN(CCCCC(COC(=O)CCCCCCC)COC(=O)CCCCCCC)[C@@H](CO)C(C)C)COC(=O)CCCCCCC [Compound 44] | –
86.40 | – | 0.14 | 61.88 | CCCCCCCC(=O)OCC(CCCCN(CCCCC(COC(=O)CCCCCCC)COC(=O)CCCCCCC)CC1(CO)CCC1)COC(=O)CCCCCCC [Compound 45] | –
73.99 | – | 0.135 | 68.21 | CCCCCCCC(=O)OCC(CCCCN(CCCCC(COC(=O)CCCCCCC)COC(=O)CCCCCCC)[C@H](CO)C(C)C)COC(=O)CCCCCCC [Compound 46] | –
83.82 | – | 0.111 | 69.44 | CCCCCCCC(=O)OCC(CCCCN(CCCCC(COC(=O)CCCCCCC)COC(=O)CCCCCCC)CC1(CO)CCCC1)COC(=O)CCCCCCC [Compound 49] | –
83.93 | – | 0.117 | 67.07 | CCCCCCCC(=O)OCC(CCCCN(CCCCC(COC(=O)CCCCCCC)COC(=O)CCCCCCC)CCC1(O)CCCCC1)COC(=O)CCCCCCC [Compound 50] | –
